Here are results for 4 compounds from patent publication US9309200B2, “Benzazepine derivatives, pharmaceutical compositions containing them, and their use in therapy” (AbbVie Deutschland GmbH & Co. KG, priority 2011, dated 2016).

Data set [1] deals with T1, human GlyT1c transporter (Homo sapiens, UniProt P48067).
T1 construct: expressed in transfected cells; host or cells: recombinant CHO cells (membranes); the uptake assay names the line hGlyT1c_5_CHO
T1 sequence (P48067 1-706): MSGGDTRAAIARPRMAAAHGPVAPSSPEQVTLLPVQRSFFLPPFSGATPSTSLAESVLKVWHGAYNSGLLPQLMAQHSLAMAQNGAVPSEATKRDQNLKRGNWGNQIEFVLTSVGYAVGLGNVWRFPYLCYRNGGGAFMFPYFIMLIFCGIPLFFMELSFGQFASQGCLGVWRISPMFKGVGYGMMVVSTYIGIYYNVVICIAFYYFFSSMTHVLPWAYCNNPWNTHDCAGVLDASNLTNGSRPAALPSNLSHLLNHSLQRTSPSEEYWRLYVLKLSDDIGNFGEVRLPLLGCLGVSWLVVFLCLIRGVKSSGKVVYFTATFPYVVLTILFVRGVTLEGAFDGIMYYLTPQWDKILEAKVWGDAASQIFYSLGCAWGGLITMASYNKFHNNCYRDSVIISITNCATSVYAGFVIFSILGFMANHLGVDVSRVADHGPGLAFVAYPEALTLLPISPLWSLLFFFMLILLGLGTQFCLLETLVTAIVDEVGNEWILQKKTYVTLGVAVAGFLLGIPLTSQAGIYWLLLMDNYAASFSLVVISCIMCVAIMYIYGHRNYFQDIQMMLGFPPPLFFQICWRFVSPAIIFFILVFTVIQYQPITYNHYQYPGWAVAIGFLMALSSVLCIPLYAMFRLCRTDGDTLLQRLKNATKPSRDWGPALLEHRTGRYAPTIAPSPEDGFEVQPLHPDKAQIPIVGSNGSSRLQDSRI
The data set is described as follows: Radioligand binding assay using recombinant CHO cell membranes expressing human GlyT1. As to conditions: read-out: radioligand binding Kiapp. The procedure:
2. Radioligand Binding Assays Using Recombinant CHO Cell Membranes Expressing Human GlyT1:
Radioligand binding to human GlyT1c transporter-expressing membranes was determined as described in Mezler et al., Molecular Pharmacology 74:1705-1715, 2008.

Data set [2] is described as follows: Metabolic stability in human liver microsomes (microsomal clearance). In kind it is in vitro ADME. As to conditions: human liver microsomes 0.25 mg protein/ml, 0.5 μM test substance, NADPH 1.0 mM, pH 7.4, 37° C. The procedure:
The metabolic stability of a compound can be measured for example by incubating a solution of this compound with liver microsomes from particular species (for example rat, dog or human) and determining the half-life of the compound under these conditions (R S Obach, Curr Opin Drug Discov Devel. 2001, 4, 36-44). It is possible in this connection to conclude from an observed longer half-life that the metabolic stability of the compound is improved. The stability in the presence of human liver microsomes is of particular interest because it makes it possible to predict the metabolic degradation of the compound in the human liver. Compounds with increased metabolic stability (measured in the liver microsome test) are therefore probably also degraded more slowly in the liver. The slower metabolic degradation in the liver may lead to higher and/or longer-lasting concentrations (active levels) of the compound in the body, so that the elimination half-life of the compounds of the invention is increased. Increased and/or longer-lasting active levels may lead to a better activity of the compound in therapeutic treatment. In addition, an improved metabolic stability may lead to an increased bioavailability after oral administration, because the compound is subject, after absorption in the intestine, to less metabolic degradation in the liver (so-called first pass effect). An increased oral bioavailability may, owing to an increased concentration (active level) of the compound, lead to a better activity of the compound after oral administration.
Metabolic stability was determined as follows:
0.5 μM test substance was preincubated together with human liver microsomes (0.25 mg of microsomal protein/ml) in 0.05 M potassium phosphate buffer of pH 7.4 in microtiter plates at 37° C. for 5 min. The reaction was started by adding NADPH (1.0 mM). After 0, 5, 10, 15, 20 and 30 min, 65 μl aliquots were removed, and the reaction was immediately stopped and cooled with twice the amount of ethanol. The samples were frozen until analyzed. The remaining concentration of undegraded test substance was determined by LC MSMS. The half-life (T½) was determined from the gradient of the signal of test substance/unit time plot, allowing to calculate the half-life of the test substance, assuming first order kinetics, from the decrease in the concentration of the compound with time. The microsomal clearance (mCl) was calculated from mCl=ln 2/T½/(content of microsomal protein in mg/ml)×1000 (modified from references: Di, The Society for Biomolecular Screening, 2003, 453-462; Obach, DMD, 1999 vol 27. N 11, 1350-1359).

For `CCS(=O)(=O)NCCOc1ccc2c(c1)C(Cc1ccccc1)NCCO2` (centres unmarked) [Example 50, Ethanesulfonic acid [2-(5-benzyl-2,3,4,5-tetrahydro-benzo[f][1,4]oxazepin-7-yloxy)-ethyl]-amide], the Ki in data set [1] is ≤ 10000 nM. The “human mCl” value in data set [2] is on record as “≦50 μl/min/mg”.
For the compound `CCCS(=O)(=O)NCCOc1ccc2c(c1)C(Cc1ccccc1)NCCO2` (centres unmarked) [Example 51, Propane-1-sulfonic acid [2-(5-benzyl-2,3,4,5-tetrahydro-benzo[f][1,4]oxazepin-7-yloxy)-ethyl]-amide], the Ki in data set [1] is ≤ 1000 nM. Besides, in data set [2], the “human mCl” value was “≦100 μl/min/mg”.
Consider `O=S(=O)(NCCOc1ccc2c(c1)C(Cc1ccccc1)NCCO2)C1CCC1` (centres unmarked) [Example 52, Cyclobutanesulfonic acid [2-(5-benzyl-2,3,4,5-tetrahydro-benzo[f][1,4]oxazepin-7-yloxy)-ethyl]-amide], for which the Ki in data set [1] was ≤ 1000 nM. Further, the “human mCl” value in data set [2] is listed as “≦100 μl/min/mg”.
For `O=S(=O)(CC1CC1)NCCOc1ccc2c(c1)C(Cc1ccccc1)NCCO2` (centres unmarked) [Example 53, N-[2-(5-Benzyl-2,3,4,5-tetrahydro-benzo[f][1,4]oxazepin-7-yloxy)-ethyl]-C-cyclopropyl-methanesulfonamide] the same measures were ≤ 1000 nM and “≦100 μl/min/mg”.
